Data reported in the NIST ThermoML archive (doi:10.1021/je800557h).
Numbers after ± are expanded uncertainties.

Details: Liquid, Ebulliometric method (Recirculating still)

CC#N [acetonitrile]
vapor or sublimation pressure (323.15 K): 33.86 ± 0.38 kPa

O [water]
vapor or sublimation pressure (298.15 K): 3.166 ± 0.054 kPa | vapor or sublimation pressure (323.15 K): 12.35 ± 0.087 kPa
